Earlier results, collected in patent publication US10864334B2, “Nasal delivery” (OptiNose AS, priority 2006, dated 2020).
Where two headings read alike, the source gives them in different places.

How the values were obtained:
[1] = intranasal; aqueous spray versus nasal drops; systemic bio-availability
[2] = in vivo

bio-availability of the nasal spray formulation relative to the nasal drop formulation [1]	bio-availability of the nasal spray formulation relative to the nasal drop formulation [2]	Structure (SMILES)
about eight times higher	–	CCC(=O)O[C@]1(C(=O)SCF)[C@H](C)C[C@H]2[C@@H]3C[C@H](F)C4=CC(=O)C=C[C@]4(C)[C@@]3(F)[C@@H](O)C[C@@]21C [fluticasone propionate]
–	two to three times higher	NC(=O)CC[C@@H]1NC(=O)[C@H](Cc2ccccc2)NC(=O)[C@H](Cc2ccc(O)cc2)NC(=O)CCSSC[C@@H](C(=O)N2CCC[C@H]2C(=O)N[C@H](CCCN=C(N)N)C(=O)NCC(N)=O)NC(=O)[C@H](CC(N)=O)NC1=O [desmopressin]
